Test results reported in patent publication US4675395A, “Cyclodextrin inclusion compound and process for its preparation” (Seiwa Technological Laboratories Limited, priority 1985, dated 1987).

Legend:
[1] = background statement; cited from earlier work
[2] = cited from earlier work
physchem = details: water

In the case of `CC(C)c1cccc(=O)c(O)c1` [hinokitiol], the “bactericidal and bacteriostatic activity” value [1] is given as “strong”, the “solubility in water at 25° C.” value [2] is given as “about 0.12%” and the solubility (physchem) is given as at most 5 mM.
